In the OligoGym collection one finds calcium oscillation score data, which are given here for 95 sequences.

Bases are written 5' to 3'; sugars and linkages follow in the same order, as letters with counts (s phosphorothioate, o phosphodiester; PS: all linkages phosphorothioate). The collection does not say whether C is 5-methylated. l = locked nucleic acid (LNA); d = 2'-deoxy (DNA)

For the data set, the target named is Tau. Nature of the data set: rat primary cortical neurons, FLIPR, 25 uM ASO.
For “TCCTAAGTCAACCACAC (sugars l4 d11 l2, PS)”, the calcium oscillation score is 56.6 % of control.
On to TGCAAACACTCCCTCT (sugars l2 d10 l4, PS), for which the calcium oscillation score was 35.4 % of control.
In the case of “ACCACTGGCGACTTGTACAC (sugars l3 d14 l3, PS)”, the calcium oscillation score was 5.18 % of control.
For “AATATCCTTACCATCCTATC (sugars l2 d14 l4, PS)” the value was 59.1 % of control.
Consider “GCATGCAGTTTATTCCTGGC (sugars l3 d14 l3, PS)”, for which the calcium oscillation score is 4.03 % of control.
On to “TTGGGTGGAGTACGGACCAC (sugars l3 d14 l3, PS)”, for which the calcium oscillation score was 0 % of control.
For “GGCCACCTCCTGGTTTATGA (sugars l3 d14 l3, PS)” the value was 0 % of control.
With “TTCTTGTTCTAACCCCA (sugars l3 d12 l2, PS)”, the calcium oscillation score was 68.1 % of control.
For “GGGCGAGTCTACCATGTCGA (sugars l3 d14 l3, PS)” the value was 66 % of control; for “TTTTTTAACTCCCAACTCTT (sugars l4 d14 l2, PS)”, 98.3 % of control.
For CCTTTGAAAGTCCTTT (sugars l4 d8 l4, PS) the value was 106 % of control; for “GGGCCTGATCACAAACCCTG (sugars l3 d14 l3, PS)”, 42.7 % of control.
CCGAACTGCGAGGAGC (sugars l3 d10 l3, PS): the calcium oscillation score was 5.43 % of control.
With “GCCTAATGAGCCACACTTGG (sugars l3 d14 l3, PS)”, the calcium oscillation score was 16.6 % of control.
For “CTCTAAGTAGACCCTGGCCA (sugars l3 d14 l3, PS)” the value was 19.1 % of control; for GCTTTCCAATTCCCCA (sugars l2 d12 l2, PS), 101 % of control; for CTAATCCTGTGCTTC (sugars l3 d9 l3, PS), 73.1 % of control.
CCTGGTTTATGATGGA (sugars l3 d10 l3, PS): the calcium oscillation score was 26.1 % of control.
Take GATTTTACTACTCTCTT (sugars l4 d9 l4, PS): the calcium oscillation score was 85.5 % of control.
For “ACTTTATTTCCAAATTCACT (sugars l5 d10 l5, PS)” the value was 98 % of control.
As to “TCCCTAATCCCCAAAGA (sugars l2 d13 l2, PS)”, the calcium oscillation score was 53.9 % of control.
With “ATTCATAAATGACTATACTT (sugars l3 d14 l3, PS)”, the calcium oscillation score was 68.5 % of control.
Consider TGGTCAAGGCTTTGGG (sugars l3 d10 l3, PS), for which the calcium oscillation score is 0 % of control.
Take “ATATTGTCCAGGGACCCAAT (sugars l3 d14 l3, PS)”: the calcium oscillation score was 19.9 % of control.
For TTAATTTCACCCTCAG (sugars l3 d10 l3, PS) the value was 41.7 % of control; for “TCCTAAGTCAACCACACC (sugars l2 d14 l2, PS)”, 69 % of control; for AATTAACCGAACTGCG (sugars l3 d10 l3, PS), 186 % of control.
For CACTGTTACACATTTA (sugars l4 d8 l4, PS) the value was 70.6 % of control.
For “CATCCTAAGTCAACCAC (sugars l3 d11 l3, PS)” the value was 72.7 % of control; for “ATTTCCAAATTCACTTTTAC (sugars l5 d10 l5, PS)”, ≥ 200 % of control; for TTAACCGAACTGCGAG (sugars l3 d10 l3, PS), 46.1 % of control.
On to “ACCACACACTCTGATAC (sugars l4 d11 l2, PS)”, for which the calcium oscillation score was 69 % of control.
TCACACACATGATTATC (sugars l4 d9 l4, PS): the calcium oscillation score is 78.5 % of control.
As for “AGCTTCGTCTTCCAGGCTGG (sugars l3 d14 l3, PS)”, the calcium oscillation score is 13.3 % of control.
For ACCTTACCACTTTCAG (sugars l3 d10 l3, PS) the value was 104 % of control; for CACCCTTACACATAGC (sugars l3 d11 l2, PS), 60.6 % of control; for GAGAACTGGTTAGCCC (sugars l3 d10 l3, PS), 2.3 % of control.
For “CCAGCGTGATCTTCCATCAC (sugars l4 d11 l5, PS)” the value was 124 % of control.
Turning to “ATCACAAACCCTGCTTGGCC (sugars l3 d14 l3, PS)”, the calcium oscillation score is 55.2 % of control.
On to AGGGACCCAATCTTCG (sugars l3 d10 l3, PS), for which the calcium oscillation score is 73.3 % of control.
Take “CTTTATTTCCAAATTCAC (sugars l4 d10 l1 d1 l2, PS)”: the calcium oscillation score is 5.59 % of control.
CTCCAATTTTAAACTTA (sugars l4 d9 l4, PS): the calcium oscillation score was 66.5 % of control.
Regarding TTCCATCTTACTAATAG (sugars l4 d9 l4, PS), the calcium oscillation score was 49.2 % of control.
As to ATTTAGTTACTCATCC (sugars l4 d8 l4, PS), the calcium oscillation score is 72.6 % of control.
For CCCTGAAAGAGGGCAG (sugars l3 d10 l3, PS) the value was 18.4 % of control.
For “TTAATTATCTGCACCTT (sugars l3 d10 l4, PS)”, the calcium oscillation score is 33.9 % of control.
Consider CTCTCAAAAATCAACGC (sugars l4 d9 l4, PS), for which the calcium oscillation score was 66.3 % of control.
For “TTCTCAAGTCTCTTTAA (sugars l3 d11 l3, PS)” the value was 70.7 % of control.
For “TCCTCACTTTACACATTAAA (sugars l4 d14 l2, PS)” the value was 70.3 % of control.
With “CGTCCCAGCGTGATCTTCCA (sugars lldllddddddddddlldll, PS)”, the calcium oscillation score was 59.6 % of control.
For CTTGGCTTTGGCGTT (sugars l3 d9 l3, PS) the value was 82.4 % of control; for “CATCAACACCTTTTAATTCA (sugars l2 d14 l4, PS)”, 98.4 % of control; for “TCTCAAATCAAACTAATAT (sugars l4 d11 l4, PS)”, 58.1 % of control.
For CTAAGGCAAGGCCTAT (sugars l3 d10 l3, PS) the value was 83 % of control; for TCTCTGCTTACAAAATC (sugars l4 d9 l4, PS), 66.8 % of control.
Consider CACCTTACCACTTTCA (sugars l3 d10 l3, PS), for which the calcium oscillation score was 115 % of control.
As to “GCAGGTATCCAGCCATATTT (sugars l3 d14 l3, PS)”, the calcium oscillation score was 29.4 % of control.
As to “CTAATGAGCCACACTTGGAG (sugars l3 d14 l3, PS)”, the calcium oscillation score was 46.5 % of control.
For “CATGCTTACACACCACAC (sugars l2 d13 l3, PS)” the value was 73.5 % of control; for “TTATTTCCAAATTCACTTTT (sugars lldldldddddddddlldll, PS)”, 110 % of control; for GATACCCTTCCTCAGA (sugars l2 d12 l2, PS), 30.9 % of control.
For “CTACATTTTTGTCTCAT (sugars l4 d10 l3, PS)” the value was 65.4 % of control; for “ACGTGGGTGATATTGTCCAG (sugars l3 d14 l3, PS)”, 0 % of control.
For TGTCATCGCTTCCAGT (sugars l3 d10 l3, PS) the value was 88 % of control; for “CCTTGATCATATTTGTGGCA (sugars l3 d14 l3, PS)”, 28.6 % of control; for “TTTAACTCAAATCAATTCT (sugars l4 d11 l4, PS)”, 72.6 % of control.
In the case of “ATCAATTCTCATTTCAACCT (sugars l3 d15 l2, PS)”, the calcium oscillation score is 70.7 % of control.
On to “TTTTTTAACTCCCAACTCT (sugars l4 d13 l2, PS)”, for which the calcium oscillation score is 95.7 % of control.
“ATTTCCAAATTCACTTTTAC (sugars llddlldddddddddldlll, PS)”: the calcium oscillation score is 112 % of control.
As for “CCAGCGTGATCTTCCATCAC (sugars ldlllddddddddddlldll, PS)”, the calcium oscillation score is 124 % of control.
For “TTCCTGCAAATTCTCAA (sugars l4 d10 l3, PS)” the value was 61.7 % of control.
For the sequence “TTTTCTTGTTCTAACCCC (sugars l2 d13 l3, PS)”, the calcium oscillation score was 50.1 % of control.
In the case of “ATTTGGAAAGATGAAATTTG (sugars l3 d14 l3, PS)”, the calcium oscillation score was 0 % of control.
For AGTCCCGTCTTTGC (sugars l3 d8 l3, PS) the value was 2.61 % of control; for CGAGTCTACCATGTCG (sugars l3 d10 l3, PS), 103 % of control.
As for GCGTGATCTTCCAT (sugars l3 d8 l3, PS), the calcium oscillation score is 182 % of control.
For GACTTGGGTGGAGTAC (sugars l3 d10 l3, PS) the value was 0 % of control; for “CTACAAACCAGTTACCA (sugars l3 d11 l3, PS)”, 69.9 % of control.
Turning to ATCCATTAATTTAGCC (sugars l3 d10 l3, PS), the calcium oscillation score is 76.7 % of control.
For “ACTTAAATTTATTTTCTTTT (sugars l4 d12 l4, PS)” the value was 55.8 % of control; for “CGAACTGCGAGGAGCAGCTG (sugars l3 d14 l3, PS)”, 0 % of control.
For “TTACTGATCATAATCCT (sugars l4 d10 l3, PS)” the value was 67.3 % of control; for “CTAATTACATTTTTTCTTTT (sugars l4 d12 l4, PS)”, 60.1 % of control.
For “TTTATGATGGATGTTGCCTA (sugars l3 d14 l3, PS)” the value was 6.64 % of control; for “CCTTACTTTCTACTCAATT (sugars l3 d14 l2, PS)”, 48.1 % of control; for “CTTTATTTCCAAATTCAC (sugars l5 d9 l4, PS)”, 104 % of control.
Regarding GCCTGATCACAAACCC (sugars l3 d10 l3, PS), the calcium oscillation score was 144 % of control.
For CAGATTTAATTCTCACT (sugars l4 d9 l4, PS) the value was 77.7 % of control; for CCTAAAGTCCCAGGTC (sugars l3 d10 l3, PS), 62.9 % of control; for “CAGGGACGTGGGTGATATTG (sugars l3 d14 l3, PS)”, 0 % of control.
For “TTAACTCAAATCAATTCTCA (sugars l4 d12 l4, PS)” the value was 62 % of control.
As for “AGACTATTTGCACACTGCCG (sugars l3 d14 l3, PS)”, the calcium oscillation score is 40.7 % of control.
Consider “CCTGGTTTATGATGGATGTT (sugars l3 d14 l3, PS)”, for which the calcium oscillation score is 0 % of control.
For “CGTCCCAGCGTGATCTTCCA (sugars l4 d11 l5, PS)” the value was 42.6 % of control; for “TTTCATGTTAAATCCCT (sugars l4 d10 l3, PS)”, 94.2 % of control.
